{
  "source": "ChEMBL document CHEMBL1132959",
  "about": "“Design of potent dicyclic (1-5/4-10) gonadotropin releasing hormone (GnRH) antagonists” (J Med Chem, 2000)",
  "note": "Bridge positions count the residues as written; N and C are the ends. Square brackets hold non-standard residues; d marks the D form. Peptide text beside a SMILES is read from it. dPhe(4-Cl) = N[C@H](Cc1ccc(Cl)cc1)C(=O)O; dPhe(4-F) = N[C@H](Cc1ccc(F)cc1)C(=O)O; d2Nal = N[C@H](Cc1ccc2ccccc2c1)C(=O)O; NMeL = CN[C@@H](CC(C)C)C(=O)O; ΔPro = O=C(O)[C@@H]1C=CCN1; Dap = NC[C@H](N)C(=O)O; βAla = NCCC(=O)O",
  "data": [
    {"molecular_target": "T1, Gonadotropin-releasing hormone receptor (Rattus norvegicus, UniProt P30969)", "T1 sequence (P30969 whole entry)": "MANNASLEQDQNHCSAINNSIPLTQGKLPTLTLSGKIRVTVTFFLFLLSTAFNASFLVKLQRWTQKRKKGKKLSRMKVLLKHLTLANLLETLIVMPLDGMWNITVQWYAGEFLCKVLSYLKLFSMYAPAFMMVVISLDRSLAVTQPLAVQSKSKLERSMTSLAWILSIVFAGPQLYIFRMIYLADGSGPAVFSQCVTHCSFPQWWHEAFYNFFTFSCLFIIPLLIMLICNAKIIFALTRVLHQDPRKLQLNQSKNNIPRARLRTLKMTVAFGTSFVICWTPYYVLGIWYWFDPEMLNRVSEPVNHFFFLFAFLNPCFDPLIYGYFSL", "assay": "(§1) Affinity for rat gonadotrophin releasing hormone (GnRH) receptor using HEK293 cells transfected with rat Gonadotropin-releasing hormone receptor", "assay_type": "cell-based", "conditions": "not given", "units": {"Ki": "µM"}, "values": [
      {"smiles": "CC(=O)N[C@H](Cc1ccc2ccccc2c1)C(=O)N[C@H](Cc1ccc(Cl)cc1)C(=O)N[C@@H]1CC(=O)NCCC[C@@H](C(=O)N2CCC[C@H]2C(=O)N[C@H](C)C(N)=O)NC(=O)[C@H](CC(C)C)NC(=O)[C@@H](Cc2ccc3ccccc3c2)NC(=O)[C@H](CCCNC(=N)N)NC(=O)[C@H](C)NC1=O", "Ki": 0.014},
      {"smiles": "CC(=O)N[C@H]1CCC(=O)NCC(=O)NCC[C@@H]2NC(=O)[C@H](CC(=O)NC[C@@H](C(N)=O)NC(=O)[C@@H]3CCCN3C(=O)[C@H](CCCNC(=N)N)NC(=O)[C@H](CC(C)C)NC(=O)[C@@H](Cc3ccc4ccccc4c3)NC2=O)NC(=O)[C@@H](Cc2c[nH]c3ccccc23)NC(=O)[C@@H](Cc2ccc(Cl)cc2)NC1=O", "Ki": 0.00024},
      {"smiles": "CC(=O)N[C@H](Cc1ccc2ccccc2c1)C(=O)N[C@H](Cc1ccc(Cl)cc1)C(=O)N[C@@H]1CC(=O)NCC[C@@H](C(=O)N2CCC[C@H]2C(=O)N[C@H](C)C(N)=O)NC(=O)[C@H](CC(C)C)NC(=O)[C@@H](Cc2ccc3ccccc3c2)NC(=O)[C@H](CCCNC(=N)N)NC(=O)[C@H](C)NC1=O", "Ki": 0.013},
      {"smiles": "CC(=O)N[C@H](Cc1ccc2ccccc2c1)C(=O)N[C@H](Cc1ccc(Cl)cc1)C(=O)N[C@@H]1CSSC[C@@H](C(=O)N2CCC[C@H]2C(=O)N[C@H](C)C(N)=O)NC(=O)[C@H](CC(C)C)NC(=O)[C@@H](Cc2ccc3ccccc3c2)NC(=O)[C@H](CCCN=C(N)N)NC(=O)[C@H](C)NC1=O", "Ki": 0.0099},
      {"smiles": "CC(C)C[C@H]1C(=O)N[C@@H](CCCN=C(N)N)C(=O)N2CCC[C@H]2C(=O)NCCC(=O)N2CC=C[C@H]2C(=O)N[C@H](Cc2ccc(Cl)cc2)C(=O)N[C@H](Cc2c[nH]c3ccccc23)C(=O)N[C@@H](CO)C(=O)N[C@@H](Cc2ccc(O)cc2)C(=O)N[C@H](Cc2c[nH]c3ccccc23)C(=O)N1C", "note": "(cyclo([NMeL]RP[βAla][ΔPro][dPhe(4-Cl)][dW]SY[dW]))", "Ki": 0.014},
      {"smiles": "CC(=O)N[C@H]1CC(=O)NCC(=O)NCC[C@@H]2NC(=O)[C@H](CC(=O)NC[C@@H](C(N)=O)NC(=O)[C@@H]3CCCN3C(=O)[C@H](CCCN=C(N)N)NC(=O)[C@H](CC(C)C)NC(=O)[C@@H](Cc3ccc4ccccc4c3)NC2=O)NC(=O)[C@@H](Cc2c[nH]c3ccccc23)NC(=O)[C@@H](Cc2ccc(Cl)cc2)NC1=O", "Ki": 0.00022},
      {"smiles": "CC(=O)N1CC=C[C@H]1C(=O)N[C@H](Cc1ccc(F)cc1)C(=O)N[C@H](Cc1c[nH]c2ccccc12)C(=O)N[C@H]1CC(=O)NC[C@@H](C(N)=O)NC(=O)[C@@H]2CCCN2C(=O)[C@H](CCCN=C(N)N)NC(=O)[C@H](CC(C)C)NC(=O)[C@@H](Cc2ccc3ccccc3c2)NC(=O)[C@H](Cc2ccc(O)cc2)NC1=O", "note": "(Ac-[ΔPro][dPhe(4-F)][dW]DY[d2Nal]LRP[Dap]-NH2; lactam 4-10)", "Ki": 0.00027},
      {"smiles": "CC(=O)N[C@H](Cc1ccc2ccccc2c1)C(=O)N[C@H](Cc1ccc(Cl)cc1)C(=O)N[C@@H]1CC(=O)NCCCC[C@@H](C(=O)N2CCC[C@H]2C(=O)N[C@H](C)C(N)=O)NC(=O)[C@H](CC(C)C)NC(=O)[C@@H](Cc2ccc3ccccc3c2)NC(=O)[C@H](CCCN=C(N)N)NC(=O)[C@H](C)NC1=O", "Ki": 0.0023},
      {"smiles": "CC(=O)N[C@H](Cc1ccc2ccccc2c1)C(=O)N[C@H](Cc1ccc(Cl)cc1)C(=O)N[C@@H]1CC(=O)NC[C@@H](C(=O)N2CCC[C@H]2C(=O)N[C@H](C)C(N)=O)NC(=O)[C@H](CC(C)C)NC(=O)[C@@H](Cc2ccc3ccccc3c2)NC(=O)[C@H](CCCN=C(N)N)NC(=O)[C@H](C)NC1=O", "Ki": 0.021}
    ]},
    {"molecular_target": "T1, Gonadotropin-releasing hormone receptor", "assay": "as §1", "assay_type": "cell-based", "conditions": "hek293", "units": {"Ki": "µM"}, "values": [
      {"smiles": "CC(=O)N[C@H](Cc1ccc2ccccc2c1)C(=O)N[C@H]1CC(=O)NCC(=O)NC[C@@H]2NC(=O)[C@H](Cc3ccc(O)cc3)NC(=O)[C@H](CC(=O)NC[C@@H](C(N)=O)NC(=O)[C@@H]3CCCN3C(=O)[C@H](CCCN=C(N)N)NC(=O)[C@H](CC(C)C)NC2=O)NC(=O)[C@@H](Cc2c[nH]c3ccccc23)NC1=O", "Ki": 0.49},
      {"smiles": "CC(=O)N[C@H]1CCC(=O)NCCCC[C@@H](C(=O)N2CCC[C@H]2C(=O)N[C@@H](C)C(N)=O)NC(=O)[C@H](CC(C)C)NC(=O)[C@H](Cc2ccc3ccccc3c2)NC(=O)[C@H](CCCNC(=N)N)NC(=O)[C@H](C)NC(=O)[C@H](Cc2cccnc2)NC(=O)[C@H](Cc2ccc(Cl)cc2)NC1=O", "Ki": 0.062},
      {"smiles": "CC(=O)N[C@H]1CC(=O)NCC(=O)NCC[C@H]2NC(=O)[C@H](CC(=O)NC[C@@H](C(N)=O)NC(=O)[C@@H]3CCCN3C(=O)[C@H](CCCN=C(N)N)NC(=O)[C@H](CC(C)C)NC(=O)[C@@H](Cc3ccc4ccccc4c3)NC2=O)NC(=O)[C@@H](Cc2c[nH]c3ccccc23)NC(=O)[C@@H](Cc2ccc(Cl)cc2)NC1=O", "Ki": 0.0031},
      {"smiles": "CC(C)C[C@@H]1NC(=O)[C@@H](Cc2ccc3ccccc3c2)NC(=O)[C@H](CCCNC(=N)N)NC(=O)[C@H](C)NC(=O)[C@@H](Cc2cccnc2)NC(=O)[C@@H](Cc2ccc(Cl)cc2)NC(=O)[C@@H](Cc2ccc3ccccc3c2)NC(=O)CCC(=O)NCCCC[C@@H](C(=O)N2CCC[C@H]2C(=O)N[C@H](C)C(N)=O)NC1=O", "Ki": 0.021}
    ]},
    {"species": "Rattus norvegicus", "assay": "Antiovulatory potency at 1000 ug/rat expressed as rats ovulating by total no. of rats (4/4)", "assay_type": "functional", "conditions": "not given", "values": [
      {"smiles": "CC(=O)N[C@H](Cc1ccc2ccccc2c1)C(=O)N[C@H]1CC(=O)NCC(=O)NC[C@@H]2NC(=O)[C@H](Cc3ccc(O)cc3)NC(=O)[C@H](CC(=O)NC[C@@H](C(N)=O)NC(=O)[C@@H]3CCCN3C(=O)[C@H](CCCN=C(N)N)NC(=O)[C@H](CC(C)C)NC2=O)NC(=O)[C@@H](Cc2c[nH]c3ccccc23)NC1=O", "Ovulating rats": 4},
      {"smiles": "CC(=O)N[C@H]1CCC(=O)NCCCC[C@@H](C(=O)N2CCC[C@H]2C(=O)N[C@@H](C)C(N)=O)NC(=O)[C@H](CC(C)C)NC(=O)[C@H](Cc2ccc3ccccc3c2)NC(=O)[C@H](CCCNC(=N)N)NC(=O)[C@H](C)NC(=O)[C@H](Cc2cccnc2)NC(=O)[C@H](Cc2ccc(Cl)cc2)NC1=O", "Ovulating rats": 4}
    ]}
  ]
}
